From patent publication US12233087B2, “Palladium hyaluronic acid particles and methods of managing cancer or angiogenic conditions” (Emory University, priority 2018, dated 2025)
Read-outs that look alike come from different tables or passages of the source.

Assays:
IGF1R = assay: Immunohistochemistry of tumor xenografts for IGF1R; assay type: in vivo, human; details: IHC, LM36R xenograft
Procedure: Immunohistochemistry was performed to qualitatively assess expression of target genes. […] To assess the impact of our treatments on IGF1R expression, IHC was used to stain the tumor xenografts with antibodies against IGF1R.

[1] = molecular target: N-myristoyltransferase 1 (NMT1) (Homo sapiens, UniProt P30419); details: reported in the literature; cited from earlier work
[2] = test system: LM36R human melanoma cells; assay: LM36R vemurafenib-resistant melanoma xenograft tumor growth in nude mice; assay type: in vivo, athymic Nu/Nu nude male mice; details: 5 mg of drug/kg per injection, bi-weekly tail vein injections, 4 weeks, n=5 per group; p-value 0.048 at week 4
Procedure: Nude male mice were inoculated with LM36R (5.0×10^5 cells), a human cell line of melanoma that is resistant to vemurafenib, and then treated with HANPs over the course of four weeks.
Vemurafenib-resistant LM36R human melanoma cells were inoculated (5.0×10^5 cells/mouse) into the right flank of athymic Nu/Nu nude male mice (Crl:NU-Foxn1^nu strain code 088)) n=5 per group, and progression of tumor was recorded using the volume model of length×(width)×0.52. Mice were split into four groups consisting of a control (empty HANP), free Tris DBA-Pd, HANP with Tris DBA-Pd, and HANP with Tris DBA-Pd and aIGF1R antibody. Free Tris DBA-Pd was first dissolved in DMSO and then mixed with Kolliphor EL™. At last, the mixture was diluted by H2O before injection at concentration of 1 mg/mL of DBA. The ratio of DMSO, Kolliphor EL™ and H2O was controlled as 1:2:7 (v/v). The treatments were administered through bi-weekly tail vein injections over the course of 4 weeks (5 mg of drug/kg per injection). Tumor samples were analyzed for CD44 (hyaluronate receptor) expression by immunohistochemistry.

melanoma = details: Clin Cancer Res. 2008, 14:5743-5748; cited from earlier work
[3] = general statement, water, cited from earlier work
[4] = Dispersion of free vs HANP-loaded Tris DBA-Pd in water, FBS and cell culture media; assay type: physicochemical
Procedure: Hyaluronic Acid (HA)-5β-cholanic acid conjugate was synthesized by linking the carboxyl group of HA with the amino group on 5β-cholanic acid in the presence of EDC and NHS (FIG. 1). Hyaluronic Acid nanoparticles/Tris-DBA palladium were prepared. Water-insoluble Tris DBA-Pd was physically encapsulated into the hydrophobic cavities by a high-pressure homogenizer. This allowed for the dispersion of Tris DBA-Pd under physiological conditions. After freeze-drying, 40 mg of HANPs were dispersed in 8 mL of distilled water and 10 mg of Tris DBA-Pd was dissolved in 2 mL dimethyl sulfoxide (DMSO). The Tris DBA-Pd solution was slowly added into the HANP in high pressure homogenizer and homogenized for 5 min. Finally, the resulting mixture was dialyzed for 4 hours against an excess amount of distilled water to remove unloaded drugs and organic solvent, followed by lyophilization.
To verify the encapsulation of Tris DBA-Pd, the size changes were compared before and after loading.

LM36R xenograft tumor = assay: Gene array / whole-transcriptome expression analysis of treated tumors; assay type: in vivo, human
Procedure: Gene array was performed on all tumors. […] By varying the delivery process of a single drug, one might be able to prevent resistance.
RNA Extraction and QC: RNA was extracted using the Qiagen miRNEasy™ kit with on column DNAse treatment. Tissue was lysed and homogenized in Qiazol™ with a rotor-stator probe homogenizer for 40 seconds or until fully disrupted (1 ml Qiazol™ per 100 mg of tissue). RNA was eluted in 50 ul nuclease free water. One microliter was used to determine OD (optical density) values on a Nanodrop 1000. One microliter was used to assess sample profiles on the Agilent 2100 using the RNA 6000 Nano assay. Total RNA (250 ng) was amplified and labeled using the ThermoFisher Scientific Illuina™ TotalPrep™ RNA Amplification kit. Labeled cRNA was hybridized to Illumina HT12™ bead array. Image acquisition and data extraction were performed.

[5] = at 25° C.; cited from earlier work

Sequence of N-myristoyltransferase 1 (NMT1) (P30419 whole entry, species assumed): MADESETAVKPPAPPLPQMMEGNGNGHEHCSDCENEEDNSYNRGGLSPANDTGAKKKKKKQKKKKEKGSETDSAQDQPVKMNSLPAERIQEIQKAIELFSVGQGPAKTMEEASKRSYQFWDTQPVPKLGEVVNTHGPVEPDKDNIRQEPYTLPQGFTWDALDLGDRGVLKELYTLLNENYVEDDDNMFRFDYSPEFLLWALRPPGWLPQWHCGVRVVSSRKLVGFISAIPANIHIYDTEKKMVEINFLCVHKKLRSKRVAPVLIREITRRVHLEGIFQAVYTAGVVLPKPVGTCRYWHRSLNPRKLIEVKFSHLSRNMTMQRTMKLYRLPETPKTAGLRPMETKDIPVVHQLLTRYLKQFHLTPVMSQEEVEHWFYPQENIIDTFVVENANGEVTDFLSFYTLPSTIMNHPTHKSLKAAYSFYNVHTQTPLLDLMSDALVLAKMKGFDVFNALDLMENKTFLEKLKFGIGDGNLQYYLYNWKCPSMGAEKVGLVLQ

Compound: Tris DBA-Pd HANPs coupled with anti-IGF1R antibodies: Tris DBA-Pd HANP with anti-IGF1R monoclonal antibodies (Dalotuzumab) conjugated onto the surface
- intensity of IGF1R staining (IGF1R): decreased the intensity of IGF1R staining more so than the other groups

Compound: O=C(/C=C/c1ccccc1)/C=C/c1ccccc1.O=C(/C=C/c1ccccc1)/C=C/c1ccccc1.O=C(/C=C/c1ccccc1)/C=C/c1ccccc1.[Pd].[Pd] [free Tris DBA-Pd, Tris(dibenzylideneacetone)dipalladium]
- activity against NMT1 [1]: activity against the enzyme N-myristoyltransferase 1
- inhibition of growth of LM36R tumors [2]: showed efficacy
- effect on melanoma growth (melanoma): effective against melanoma growth
- solubility ([3]; listed as Tris (dibenzylideneacetone) dipalladium): poor solubility
- solubility ([3]; listed as Tris DBA-Pd): Water-insoluble
- behaviour in water, FBS, and cell culture media (precipitation / dispersion) [4]: immediately precipitated
- SCG2 (secretogranin 2) expression (LM36R xenograft tumor): downregulated

Compound: CCCCCCCC [octane]
- percent solubility in water by weight [5]: 0.63×10^−4 % w/w
